We go through one compound from ChEMBL document CHEMBL4190285, “Borapetoside E, a Clerodane Diterpenoid Extracted from Tinospora crispa, Improves Hyperglycemia and Hyperlipidemia in High-Fat-Diet-Induced Type 2 Diabetes Mice” (J Nat Prod, 2017).

Test [1] deals with Mus musculus. In words: Antihyperlipidemic activity in high fat diet-induced obese C57BL/6J mouse assessed as serum free fatty acid levels at 200 mg/kg, ip administered twice daily for 2.5 days measured at 2 hrs post last dose (reference value: 1.41 +/- 0.3 mmol/L). Type of test: functional.
Test [2] concerns Mus musculus. Description: Antihyperlipidemic activity in high fat diet-induced obese C57BL/6J mouse assessed as serum triglyceride levels at 200 mg/kg, ip administered twice daily for 2.5 days measured at 2 hrs post last dose (reference value: 1.31 +/- 0.48 mmol/L). Type of test: functional.
Test [3] concerns Mus musculus. In words: Antihyperlipidemic activity in high fat diet-induced obese C57BL/6J mouse assessed as serum LDL-C levels at 200 mg/kg, ip administered twice daily for 2.5 days measured at 2 hrs post last dose (reference value: 2.54 +/- 0.87 mmol/L). It is filed as functional.
Test [4] relates to Mus musculus. Description: Antihyperlipidemic activity in high fat diet-induced obese C57BL/6J mouse assessed as serum total cholesterol levels at 200 mg/kg, ip administered twice daily for 2.5 days measured at 2 hrs post last dose (reference value: 4.56 +/- 1.01 mmol/L). It is filed as functional.
Test [5] concerns Mus musculus. Description: Antihyperglycemic activity in high fat diet-induced obese C57BL/6J mouse assessed as reduction in blood glucose level at 200 mg/kg, ig administered as single dose. Type of test: functional, organism-based.
The test system of test [6] is Mus musculus. Description: Antihyperglycemic activity in high fat diet-induced obese C57BL/6J mouse assessed as reduction in blood glucose level at 200 mg/kg, ig administered twice daily for 2.5 days measured up to 5 days post last dose. Type of test: functional, organism-based.
Test [7] relates to Mus musculus. In words: Antihyperlipidemic activity in high fat diet-induced obese C57BL/6J mouse assessed as serum HDL-C levels at 200 mg/kg, ip administered twice daily for 2.5 days measured at 2 hrs post last dose (reference value: 1.82 +/- 0.58 mmol/L). Type of test: functional.

Active and inactive are the calls of the source. No cut-off for these calls is given here.

Consider `CN(C)C(=N)NC(=N)N` [METFORMIN], for which the Activity in test [1] is reported as 1.18 mmol/L; in test [2], 0.97 mmol/L; in test [3] it was 2.93 mmol/L; in test [4], 4.47 mmol/L; in test [7], 2.14 mmol/L. Moreover, the result in test [5] and in test [6] was Active.
